Our source for the IC50 and MIC values is patent publication US6821980B1, “Substituted 5-benzyl-2,4-diaminopyrimidines” (Basilea Pharmaceutica AG, priority 1999, dated 2004).

In assay [1] the target is T1, purified DHFR of strain Sp1/1 of Streptococcus pneumoniae (Streptococcus pneumoniae serotype 4, UniProt Q54801).
T1 sequence (Q54801 1-168 I100L): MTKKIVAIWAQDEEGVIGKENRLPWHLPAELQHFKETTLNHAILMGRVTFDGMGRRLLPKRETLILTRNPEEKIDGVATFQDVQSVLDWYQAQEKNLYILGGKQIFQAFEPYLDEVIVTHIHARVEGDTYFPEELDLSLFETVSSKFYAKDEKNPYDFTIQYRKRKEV
The class given is biochemical. The following applies: Table 2; IC50 against purified DHFR of strain Sp1/1.

The target of assay [2] is purified DHFR of strain 157/4696 of Staphylococcus aureus (Staphylococcus aureus, UniProt P13955). Kind of assay: biochemical.
For assay [3], the system named is Staphylococcus aureus 101. Kind of assay: MIC against Staphylococcus aureus 101. It counts as cell-based. The following applies: Table 2; Staphylococcus aureus 101, MRSA- and trimethoprim-resistant; clinical isolate; read-out: MIC Sa101.
For assay [4], the system named is Streptococcus pneumoniae 1/1. The experiment in a line: MIC against Streptococcus pneumoniae 1/1. It counts as cell-based. The following applies: Table 2; Streptococcus pneumoniae 1/1, trimethoprim- and penicillin-resistant, serotype 6; clinical isolate; read-out: MIC Sp1/1.

The structures appear in SMILES notation. Values after ≈ are worked out from the molar mass of the structure shown.

purified DHFR of strain 157/4696 of Staphylococcus aureus, sequence (P13955 whole entry): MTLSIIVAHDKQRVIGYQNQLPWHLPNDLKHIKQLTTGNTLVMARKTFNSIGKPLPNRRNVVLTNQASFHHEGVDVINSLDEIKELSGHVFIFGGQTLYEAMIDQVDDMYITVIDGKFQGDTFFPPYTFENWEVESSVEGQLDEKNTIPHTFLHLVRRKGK

As to `CCOc1cc(Cc2cnc(N)nc2N)cc(OS(=O)(=O)CC(C)C)c1-c1ccc(N)c(F)c1` [Example 36-b, 2-Methyl-propane-1-sulphonic acid 4′-amino-4-(2,4-diamino-pyrimidin-5-ylmethyl)-6-ethoxy-3′-fluoro-biphenyl-2-yl ester], the values for the IC50 in assay [1] and in assay [2] were 5.8 nM and 230 nM, respectively. Besides, the MIC was determined as 8 µg/mL (≈ 16.3 µM) in assay [3] and 0.5 µg/mL (≈ 1.02 µM) in assay [4].

Turning to `CCOc1cc(Cc2cnc(N)nc2N)cc(OS(=O)(=O)CC(C)C)c1-c1ccc(N)cc1` [Example 36-c, 2-Methyl-propane-1-sulphonic acid 4′-amino-4-(2,4-diamino-pyrimidin-5-ylmethyl)-6-ethoxy-biphenyl-2-yl ester], the figures for the concentration for half-maximal inhibition (IC50) in assay [1] and in assay [2] were 4.8 nM and 240 nM, respectively. Further, the MIC was found to be 2 µg/mL (≈ 4.24 µM) in assay [3] and 0.5 µg/mL (≈ 1.06 µM) in assay [4].

Regarding `CCOc1cc(Cc2cnc(N)nc2N)cc(OS(=O)(=O)CC(C)C)c1-c1ccc(OC)c(N)c1` [Example 36-d, 2-Methyl-prooane-1-sulphonic acid 3′-amino-4-(2,4-diamino-pyrimidin-5-ylmethyl)-6-ethoxy-4′-methoxy-biphenyl-2-yl ester], the figures for the IC50 in assay [1] and in assay [2] were 0.68 nM and 66 nM, respectively. For the same compound, the MIC in assay [3] was determined as 2 µg/mL (≈ 3.99 µM); in assay [4] it was 0.5 µg/mL (≈ 0.997 µM).

`CCOc1cc(Cc2cnc(N)nc2N)cc(OS(=O)(=O)CC(C)C)c1-c1ccc(NCCO)cc1` [Example 36-e, 2-Methyl-propane-1-sulphonic acid 4-(2,4-diamino-pyrimidin-5-ylmethyl)-6-ethoxy-4′-(2-hydroxy-ethylamino)-biphenyl-2-yl ester]: the IC50 in assay [1] was found to be 2.1 nM; in assay [2], 250 nM. Further, the MIC was 4 µg/mL (≈ 7.76 µM) in assay [3] and 0.5 µg/mL (≈ 0.97 µM) in assay [4].

Turning to `CCOc1cc(Cc2cnc(N)nc2N)cc(OS(=O)(=O)CC(C)(C)C)c1-c1ccc(N)c(F)c1` [Example 37-a, 2,2-Dimethyl-propane-1-sulphonic acid 4′-amino-4-(2,4-diamino-pyrimidin-5-ylmethyl)-6-ethoxy-3′-fluoro-biphenyl-2-yl ester], the results for the IC50 in assay [1] and in assay [2] were 4.5 nM and 550 nM, respectively. Moreover, the MIC in assay [3] is 4 µg/mL (≈ 7.94 µM); in assay [4], 0.25 µg/mL (≈ 0.496 µM).

On to `CCOc1cc(Cc2cnc(N)nc2N)cc(OS(=O)(=O)CC(C)(C)C)c1-c1ccc(OC)c(N)c1` [Example 37-b, 2,2-Dimethyl-propane-1-sulphonic acid 3′-amino-4-(2,4-diamino-pyrimidin-5-ylmethyl)-6-ethoxy-4′-methoxy-biphenyl-2-yl ester], for which the IC50 amounted to 1.7 nM in assay [1] and 260 nM in assay [2]. The MIC was 4 µg/mL (≈ 7.76 µM) in assay [3] and 0.25 µg/mL (≈ 0.485 µM) in assay [4].

In the case of `CCOc1cc(Cc2cnc(N)nc2N)cc(OS(=O)(=O)CC(C)(C)C)c1-c1ccc(N)cc1` [Example 37-c, 2,2-Dimethyl-propane-1-sulphonic acid 4′-amino-4-(2,4-diamino-pyrimidin-5-ylmethyl)-6-ethoxy-biphenyl-2-yl ester], the IC50 is 1.8 nM in assay [1] and 580 nM in assay [2]. In addition, the MIC in assay [3] was found to be 4 µg/mL (≈ 8.24 µM); in assay [4] it was 0.5 µg/mL (≈ 1.03 µM).

For `CCOc1cc(Cc2cnc(N)nc2N)cc(OS(=O)(=O)CC(C)(C)C)c1-c1ccc(NCCO)cc1` [Example 37-d, 2,2-Dimethyl-propane-1-sulphonic acid 4-(2,4-diamino-pyrimidin-5-ylmethyl)-6-ethoxy-4′-(2-hydroxy-ethylamino)-biphenyl-2-yl ester], the figures for the IC50 in assay [1] and in assay [2] were 1.5 nM and 290 nM, respectively. The MIC in assay [3] amounted to 8 µg/mL (≈ 15.1 µM); in assay [4] it was 0.25 µg/mL (≈ 0.472 µM).

With `CCOc1cc(Cc2cnc(N)nc2N)cc(OS(=O)(=O)CC2CC2)c1-c1cccc(N)c1` [Example 38-a, Cyclopropylmethane-sulphonic acid 3′-amino-4-(2,4-diamino-pyrimidin-5-ylmethyl)-6ethoxy-biphenyl-2-yl ester], the IC50 was found to be 5.2 nM in assay [1] and 160 nM in assay [2]. The MIC in assay [3] came to 2 µg/mL (≈ 4.26 µM); in assay [4], 1 µg/mL (≈ 2.13 µM).
